Values joined by “and” are separate entries in the source; they are usually repeats but may differ in a detail not shown here. Identical values can stand only once. Active and inactive are the calls of the source. No rule for the calls is given here.
Biological target: Neuropeptides B/W receptor type 1 (Homo sapiens) (UniProt P48145)
Experiment: GPR7 antagonist potency, late-stage follow-up, cell-based, fluorescence, dose response, set 2 (AID 504868)
Conditions: GPR7-expressing cells, fluorescence antagonist readout

| Structure (SMILES) | IC50 (run 1) | IC50 (run 2) | IC50 (run 3) |
| --- | --- | --- | --- |
| COc1ccc(Oc2c(C)cnn(-c3ccc(C(C)C)cc3)c2=O)cc1 | 7.48 µM | 7.22 µM |  |
| Cc1ccc(-n2ncc(Cl)c(Oc3ccc(CO)cc3)c2=O)cc1 | 2.26 µM | 0.844 µM | 1.71 µM |
| COc1ccc(Oc2c(Cl)cnn(-c3ccc(C)cc3)c2=O)cc1 | 1.01 µM and 2.23 µM | 0.741 µM and 1.42 µM | 1.35 µM |
| COc1ccc(Oc2c(C3CC3)cnn(-c3ccc(C)cc3)c2=O)cc1 | 6.22 µM | 4 µM |  |
| COC(=O)c1cnn(-c2ccc(C(C)C)cc2)c(=O)c1Oc1ccc(OC)cc1 | 2.73 µM | 1.88 µM |  |
| COc1ccc(Oc2c(C#N)cnn(-c3ccc(C(C)C)cc3)c2=O)cc1 | 4.19 µM | 2.41 µM |  |
| Cc1ccc(-n2ncc(Cl)c(Oc3ccc(C(F)(F)F)cc3)c2=O)cc1 | 2.16 µM | 1.05 µM | 1.8 µM |
| Cc1ccc(-n2ncc(Cl)c(Oc3ccc(OC(F)(F)F)cc3)c2=O)cc1 | 0.878 µM | 0.518 µM | 0.836 µM |
| COc1ccc(Oc2c(C=O)cnn(-c3ccc(C(C)C)cc3)c2=O)cc1 | 6.2 µM | 4.41 µM |  |
| COc1ccc(Oc2c(-c3ccccc3)cnn(-c3ccc(C)cc3)c2=O)cc1 | > 20 µM (inactive) | > 20 µM (inactive) | > 20 µM (inactive) |

Reference: PubChem BioAssay AID504868 (The Scripps Research Institute Molecular Screening Center, 2011)
